In US20190106697A1, “Inhibition Of Lactate Transporters For Use In The Treatment Of Inflammatory Diseases” (Queen Mary University of London, priority 2014, published 2019):

How the values were obtained:
[1] = test system: activated CD4+ T-cells; test: In vitro chemokinesis of activated CD4+ T-cells towards CXCL10 (transwell); format: cell-based, mouse; settings: for chemokinesis in vitro towards CXCL10 of pre-treated activated CD4+ T-cells: pre-treated overnight: Rapamycin 200 nM, 2-DG 1 mM, Metformin 2 mM
Excerpt: (§1) T-cell isolation, in-vitro activation and subset enrichment: T-cells were isolated from C57BL/6 murine lymph nodes and activated for 3 to 5 days with plate bound anti-CD3 and anti-CD28 antibodies (BioLegend), and IL-2 (PeproTech). CD4+ and CD8+ subsets were enriched with commercially available CD4+ and CD8+ T-cell isolation kits according to the manufacturer's instructions (Easysep, Invitrogen) either prior or post activation according to experimental settings. Chemokinesis assays: Chemokinesis assays were performed in 5 μm transwell inlays. In some experiments, T-cells were pre-treated overnight with a number of drugs purchased from Calbiochem: Rapamycin (200 nM), 2-DG (1 mM), Metformin (2 mM). […] 3×10^6 lymphocytes were seeded in the upper transwell chamber; chemokines were added to the lower chamber: CXCL10 (300 ng/ml), CCL5 (50 ng/ml), CCL19/21 (200 ng/ml of each chemokine). Migrated T-cells were counted with a hemocytometer 2, 4 and 6 hours after seeding and % of migrated cells was calculated.

[2] = test system: activated CD4+ T-cells; test: Extracellular acidification rate (ECAR), Seahorse analyzer, CD4+ T-cells; format: cell-based, mouse; settings: for effect on glycolysis (ECAR trace) of metabolic drugs: 2-DG 1 mM, Rapamycin 200 nM, Metformin 2 mM, Etomoxir 100 μM
Experimental: (§2) Measurement of lactate, glycolysis, glucose uptake/flux and cell death: Lactate concentration was measured in the synovial fluid or peritoneal lavage using the Lactate assay Kit (Biovision), according to the manufacturer's instructions. Glycolytic metabolism was measured with a Seahorse XF24 Extracellular Flux Analyzer. Briefly, T-cells were grown in high glucose RPMI-1640 supplemented with 10% FCS. […] T-cell viability upon lactate or metabolic drug treatment was assessed by trypan blue exclusion assay.

[3] = test system: activated CD4+ T-cells; test: In vivo peritoneal recruitment model (CXCL10 i.p.) of pre-treated activated CD4+ T-cells; settings: cells pre-treated with Rapamycin 200 nM, 2-DG 1 mM, Metformin 2 mM; CXCL10 120 ng/mouse i.p.
Experimental: In vivo peritoneal recruitment model: All the in vivo experiments were conducted under the UK Home Office regulation (PPL 70/7443). Activated T-cells (5×10^6/mouse) were pre-treated overnight with Rapamycin (200 nM), 2-Deoxyglucose (1 mM) or Metformin (2 mM), then labelled with the fluorescent cell dye DDAO (Invitrogen) and injected intravenously into syngeneic female C57BL/6 mice that had 3 hours prior received an intraperitoneal injection of CXCL10 (120 ng/mouse). 24 hours after injection, mice were sacrificed and spleen and peritoneal lavage were harvested. T-cells were stained for surface markers (CD4 and CD8, ebiosciences) and analysed by FACS. Cells were first gated on CD4 and subsequently analysed for DDAO positivity. This method was used in FIG. 3G and S3E.

[4] = test system: naive T-cells; test: In vitro chemotaxis of naive T-cells towards CCL19/21; format: cell-based, mouse; settings: CCL19/21 200 ng/ml each; Rapamycin 200 nM, 2-DG 1 mM, Metformin 2 mM
Excerpt: as §1

[5] = molecular target: T1, Slc16a1 on CD8+ T-cells (Mus musculus, UniProt P53986); test: Blockade of Slc16a1: chemokinesis of CD8+ T-cells exposed to lactic-acid; format: cell-based; settings: lactic-acid 10 mM; CHC 425 μM, phloretin 25 μM, antibody 2.5 μg/ml, AR-C155858 increasing concentrations
T1 construct: endogenous in cells
T1 sequence (P53986 1-493): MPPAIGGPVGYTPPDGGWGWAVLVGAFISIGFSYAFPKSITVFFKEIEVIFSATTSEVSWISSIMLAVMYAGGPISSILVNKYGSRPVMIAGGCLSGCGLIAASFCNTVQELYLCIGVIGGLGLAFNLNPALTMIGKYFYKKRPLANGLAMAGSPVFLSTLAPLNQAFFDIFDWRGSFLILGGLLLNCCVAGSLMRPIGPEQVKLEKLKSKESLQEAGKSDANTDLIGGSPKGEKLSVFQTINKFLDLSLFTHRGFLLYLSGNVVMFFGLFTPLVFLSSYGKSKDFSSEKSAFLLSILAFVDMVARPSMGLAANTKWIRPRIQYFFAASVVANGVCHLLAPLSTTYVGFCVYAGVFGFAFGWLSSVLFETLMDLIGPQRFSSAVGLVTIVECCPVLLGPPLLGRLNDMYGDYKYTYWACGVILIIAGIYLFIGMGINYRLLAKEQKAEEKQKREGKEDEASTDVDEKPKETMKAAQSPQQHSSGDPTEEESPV
T1 sequence (P18572 140-389 partner limits assumed): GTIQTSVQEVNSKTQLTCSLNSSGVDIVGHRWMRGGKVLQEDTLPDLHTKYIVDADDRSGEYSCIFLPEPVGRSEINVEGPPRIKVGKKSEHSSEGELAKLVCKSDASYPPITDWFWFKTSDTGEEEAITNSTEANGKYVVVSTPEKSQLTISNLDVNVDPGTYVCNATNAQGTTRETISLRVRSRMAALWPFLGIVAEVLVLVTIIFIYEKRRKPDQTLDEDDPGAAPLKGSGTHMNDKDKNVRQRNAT
Excerpt: as §1

[6] = test system: CD4+ and CD8+ T-cells in the peritoneum; test: Zymosan-induced peritonitis: T-cells in peritoneal lavage; format: in vivo, mouse; settings: i.p. day 5 after zymosan, phloretin 50 μM, antibody 5 μg/ml, 24 h
Experimental: The inventors used a well-established mouse model of zymosan-induced peritonitis, in which T-cells are recruited to the inflamed site 5 days after zymosan injection (Montero-Melendez et al 2011 Am J Pathol 179: 259-269). C57BL/6 mice were injected in the peritoneal cavity with zymosan (1 mg/mouse) on day 0 or left untreated. On day 5, Phloretin, an anti-Slc5a12 antibody or an isotype control antibody were injected into the peritoneal cavity. 24 hours later, mice were sacrificed and the peritoneal lavage was harvested.
(§3) In vivo zymosan-induced peritonitis: C57BL/6 mice were injected in the peritoneal cavity with zymosan (1 mg per mouse) on day 0 or left untreated. On day 5, Phloretin (50 μM), anti-Slc5a12 antibody (5 μg/ml) or anti-rabbit IgG isotype control antibody (5 μg/ml; Invitrogen) were injected into the peritoneal cavity. 24 hours later, mice were sacrificed and the peritoneal lavage was harvested. T-cells were stained for surface markers (CD4 and CD8; ebiosciences) and analyzed by FACS. This method was used in FIG. 6B and S6A-B. Alternatively C57BL/6 mice were injected in the peritoneal cavity with zymosan (1 mg per mouse) on day 0. […] T-cells were stained for surface markers (CD4 and CD8; ebiosciences) and analyzed by FACS. Cells were first gated on CD4 and subsequently analysed for CFSE positivity. […]

[7] = test system: CFSE-labelled CD4+ T-cells; test: Zymosan-induced peritonitis: adoptive transfer of CFSE-labelled CD4+ T-cells; format: in vivo, mouse; settings: co-injected i.p. day 5 after zymosan; 24 h
Experimental: To establish that the decrease in T-cell localization to the peritoneal cavity was at least in part due to their increased release from this site, the inventors performed adoptive transfer experiments whereby CFSE-labelled CD4+ T-cells were co-injected with anti-Slc5a12 antibody, phloretin or an isotype control antibody in the peritoneal cavity of mice which had received zymosan (1 mg/mouse) 5 days before, to create an environment rich of lactate (FIG. 12A). 24 hours after the intra-peritoneal injection of CFSE-labelled CD4+ T-cells, mice were sacrificed, and peritoneal lavage and spleen were harvested.
as §3, with “FACS.” for “FACS. This method was used in FIG. 6B and S6A-B. Alternatively C57BL/6 mice were injected in the peritoneal cavity with zymosan (1 mg per mouse) on day 0.”

[8] = test system: activated CD8+ T-cells; test: In vitro chemokinesis of activated CD8+ T-cells towards CXCL10 (transwell); format: cell-based, mouse; settings: 10 mM lactic acid or sodium lactate; CXCL10 300 ng/ml
Excerpt: as §1

[9] = test system: activated CD4+ T-cells; test: CCL5-induced chemokinesis of activated CD4+ T-cells; format: cell-based, mouse; settings: 10 mM; CCL5 50 ng/ml
Excerpt: as §1

[10] = test system: activated CD4+ T-cells; test: Western blot of glycolytic enzymes in activated CD4+ T-cells treated with CXCL10; format: cell-based, mouse; settings: CXCL10 1000 ng/ml; sodium-lactate 10 mM
Experimental: Western blot: Protein lysates were prepared from activated T-cells in RIPA buffer. Proteins were separated with SDS-PAGE and transferred to a Nylon membrane (GE Healthcare). Membranes were blocked for 2 h at room temperature in 5% Milk/TBST, incubated overnight at 4° C. with primary antibodies (1:1000) and subsequently with HRP-conjugated secondary antibody (Amersham Bioscience) (1:5000). Antibodies against hexokinase 1, pyruvate kinase M1/2, Aldolase A, Enolase 1 and 6-actin were purchased from Cell Signaling; antibodies against Slc16a1 and Slc5a12 were purchased from Abeam.

[11] = test system: activated CD4+ T-cells; test: Glucose uptake and flux with 2-NBDG / 6-NBDG in CD4+ T-cells; format: cell-based, mouse; settings: 10 mM; 2-NBDG and 6-NBDG probes
Experimental: as §2

[12] = test system: CD4+ subsets Th0, Th1, Th2 and Th17; test: qRT-PCR of cytokines and Rorc in Th0, Th1, Th2, Th17 subsets; format: cell-based, mouse; settings: sodium-lactate 10 mM
Experimental: RNA isolation and reverse transcription: RNA was isolated from 10^6 cells or 10 mg RA synovial tissue using commercially available kits (Qiagen) or Trizol (Life) according to the manufacturer's instructions and assessed for quality and quantity using absorption measurements. Reverse transcription to cDNA was performed according to the manufacturer's instruction (Applied Biosystems).
qRT-PCR: Gene expression analysis was done using SYBR Green Supermix (Biorad) in CFX connect light cycler (Biorad), according to the manufacturer's instructions. Gene relative expression was calculated using the rlAct method and normalized to a reference control (RplpO). Primers for qRT-PCR were designed with the assistance of online tools (Primer 3PIus) using at least one exon junction binding site per primer pair where possible. A complete list of primers used is available in Table 2 below. Gene accession numbers are shown according to GenBank.
Th subset differentiation: T-cells were isolated from murine lymph nodes and enriched for CD3+ and subsequently CD4+ subsets. 10^6 cells were plated/well and differentiated towards Th0, Th1, Th2 and Th17 phenotype. Conditions were: Th0 (10 ng/ml IL-2); Th1 (10 ng/ml IL-2; 3.4 ng/ml IL-12; 2 μg/ml Anti-IL-4); Th2 (10 ng/ml IL-2; 10 ng/ml IL-4; 2 μg/ml Anti-IFN-γ); Th17 (10 ng/ml IL-6; 2 μg/ml Anti-IL-4; 2 μg/ml Anti-IFN-γ, 5 ng/ml TGF-β). All antibodies and cytokines were purchased from PeproTech.

[13] = test system: activated CD4+ T-cells; test: Intracellular staining of IL-17 in activated CD4+ T-cells; format: cell-based, mouse; settings: sodium-lactate 10 mM vs untreated
Experimental: Intracellular protein staining: Differentiated T-cells were incubated in permeabilization/fixation buffer (ebioscience) overnight at 4° C. Samples were washed in permeabilization buffer (ebioscience) and stained for the cytokines IFN-γ and IL-17, using fluorescently conjugated primary antibodies (1:200, ebiosciences) at 4° C. for 30 minutes, and assessed by flow cytometry using a LSR Fortessa (BD Biosciences) and FlowJo version 7.6.5 software.

Structure (SMILES): O=CC[C@@H](O)[C@H](O)[C@H](O)CO [2-DG, 2-deoxyglucose]
- chemokinesis in vitro towards CXCL10 of pre-treated activated CD4+ T-cells [1]: decrease
- effect on glycolysis (ECAR trace) of metabolic drugs [2]: inhibition of glycolysis
- chemokinesis in vivo: T-cell recruitment to the peritoneum [3]: decrease
- naive T-lymphocyte motility [4]: decrease

Structure (SMILES): N#CC(=Cc1ccc(O)cc1)C(=O)O [CHC, α-cyano-4-hydroxycinnamate]
- chemokinesis of CD8+ T-cells exposed to lactic-acid upon blockade of Slc16a1 [5]: restored

Structure (SMILES): CCOC(=O)[C@@]1(CCCCCCOc2ccc(Cl)cc2)CO1 [etomoxir]
- effect on glycolysis (ECAR trace) of metabolic drugs [2]: only minor effects

Structure (SMILES): CN(C)C(=N)N=C(N)N [metformin]
- chemokinesis in vitro towards CXCL10 of pre-treated activated CD4+ T-cells [1]: increased
- effect on glycolysis (ECAR trace) of metabolic drugs [2]: activation of glycolysis
- chemokinesis in vivo: T-cell recruitment to the peritoneum [3]: increased
- naive T-lymphocyte motility [4]: reduced

Structure (SMILES): O=C(CCc1ccc(O)cc1)c1c(O)cc(O)cc1O [phloretin]
- chemokinesis of CD8+ T-cells exposed to lactic-acid upon blockade of Slc16a1 [5]: restored
- CD8+ T-cells in the peritoneum [6]: significant decrease
- CD4+ T-cells in the peritoneum ([6]; vs isotype control): did not show any effect
- adoptively transferred T-cells in the peritoneum [7]: not
- adoptively transferred T-cells in the spleen [7]: not

Structure (SMILES): CC(O)C(=O)[O-].[Na+] (stereo not drawn) [sodium-lactate]
- CXCL10-induced chemokinesis of activated CD4+ T-cells ([1]; 10 mM lactic acid or sodium lactate, CXCL10 300 ng/ml): inhibited
- EC50 ([1]; increasing concentration of sodium lactate, CXCL10 300 ng/ml, read-out: EC50 for decrease of migration of CD4+ T-cells): ~10 mM
- CXCL10-induced chemokinesis of activated CD8+ T-cells [8]: not vice versa
- CCL5-induced migration of CD4+ T-cells [9]: decreased
- CXCL10-induced upregulation of glycolytic enzymes [10]: inhibited
- glycolysis (ECAR) of CXCL10-stimulated CD4+ T-cells ([2]; CXCL10 1000 ng/ml, sodium-lactate 10 mM): shut down glycolysis
- ECAR of CD4+ T-cells, basal conditions ([2]; sodium-lactate 10 mM, untreated control average 14 mpH/min): less than 5 mpH/min
- glucose uptake and flux through glycolysis in CD4+ T-cells [11]: selectively blocks
- IL-17 gene expression in Th subsets ([12]; all the Th subsets): significant up-regulation
- Rorc gene expression in Th subsets ([12]; all the Th subsets): significantly elevated
- gene expression of Th1 and Th2 signature cytokines ([12]; reduced: IL-4, IL-5, IL-13 in Th17 subset): unmodified upon treatment with sodium-lactate or even reduced
- expression of IL-17 protein in CD4+ cells [13]: increased
